Measurements reported in US9303016B2, “Derivatives of aza adamantane and uses thereof” (CONNEXIOS LIFE SCIENCES PVT. LTD., priority 2011, dated 2016).

Molecular target: T1, human full length HSD11β1 (Homo sapiens, UniProt P28845)
T1 construct: transient expression of human full length HSD11β1 expression vector; host or cells: CHO cells, transient transfection
Assay: In Vitro HSD11β1 Inhibition Assay
Assay type: cell-based
Conditions: CHO cells transiently expressing human HSD11β1; 200 nM cortisone+500 uM NADPH overnight; cortisone to cortisol by LC/MS-MS; read-out: 11βHSD1 (IC50)
Outline: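 Whole-cell assay in CHO cells transiently transfected with full-length human HSD11β1, re-seeded 24 h after transfection. Cells incubated overnight with 200 nM cortisone plus 500 uM NADPH, with or without inhibitor. Cortisone-to-cortisol conversion measured by LC/MS-MS; IC50 (nM) from an 8-point log concentration-inhibition curve.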

T1 sequence (P28845 whole entry): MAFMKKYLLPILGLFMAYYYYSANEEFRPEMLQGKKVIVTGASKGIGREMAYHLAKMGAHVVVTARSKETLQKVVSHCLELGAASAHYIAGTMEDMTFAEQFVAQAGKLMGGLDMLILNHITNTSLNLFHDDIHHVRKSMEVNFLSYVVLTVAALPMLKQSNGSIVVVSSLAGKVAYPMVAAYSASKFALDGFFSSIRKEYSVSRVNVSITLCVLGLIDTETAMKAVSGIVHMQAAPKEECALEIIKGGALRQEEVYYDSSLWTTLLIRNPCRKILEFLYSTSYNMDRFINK

SMILES | IC50 [nM]
CC(CC(=O)N1C2CC3CC1CC(O)(C3)C2)c1c(C#N)[nH]c2cccc(C3CC3)c12 (centres unmarked) [Compound 220, 4-cyclopropyl-3-(4-(5-hydroxy-2-azaadamantan-2-yl)-4-oxobutan-2-yl)-1H-indole-2-carbonitrile] | > 250
COc1cc2c(C(C)CC(=O)N3C4CC5CC3CC(O)(C5)C4)c[nH]c2cc1Cl (single isomer, unassigned) [Compound 129, 3-(6-chloro-5-methoxy-1H-indol-3-yl)-1-(5-hydroxy-2-azatricyclo[3.3.1.1^3,7]dec-2-yl)butan-1-one] | > 250
CC(CC(=O)N1C2CC3CC1CC(O)(C3)C2)c1c[nH]c2ccc(Cl)c(Cl)c12 (single isomer, unassigned) [Compound 172, 3-(4,5-dichloro-1H-indol-3-yl)-1-(5-hydroxy-2-azatricyclo[3.3.1.1^3,7]dec-2-yl)butan-1-one] | > 250
CC(C)Oc1cccc2[nH]cc(C(C)CC(=O)N3C4CC5CC(C4)CC3C5)c12 (centres unmarked) [Compound 181, 1-(2-azatricyclo[3.3.1.1^3,7]dec-2-yl)-3-[4-(propan-2-yloxy)-1H-indol-3-yl]butan-1-one] | > 250
CC(CC(=O)N1C2CC3CC1CC(O)(C3)C2)c1nc2ccc(Cl)cc2s1 (centres unmarked) [Compound 192, 3-(6-chloro-1,3-benzothiazol-2-yl)-1-(5-hydroxy-2-azatricyclo[3.3.1.1^3,7]dec-2-yl)butan-1-one] | < 100
CC(CC(=O)N1C2CC3CC1CC(CC(=O)O)(C3)C2)c1c[nH]c2cccc(-c3cccs3)c12 (centres unmarked) [Compound 154, (2-{3-[4-(thiophen-2-yl)-1H-indol-3-yl]butanoyl}-2-azatricyclo[3.3.1.1^3,7]dec-5-yl)acetic acid] | > 250
CC(CC(=O)N1C2CC3CC1CC(c1nnn[nH]1)(C3)C2)c1c[nH]c2cccc(C3CC3)c12 (centres unmarked) [Compound 149, 3-(4-cyclopropyl-1H-indol-3-yl)-1-[5 (1H-tetrazol-5-yl)-2-azatricyclo[3.3.1.1^3,7]dec-2-yl]butan-1-one] | > 250
O=C(CC(c1ccccc1)c1c[nH]c2cc(Cl)ccc12)N1C2CC3CC1CC(C(=O)O)(C3)C2 (single isomer, unassigned) [Compound 141, 2-[3-(6-chloro-1H-indol-3-yl)-3-phenylpropanoyl]-2-azatricyclo[3.3.1.1^3,7]decane-5-carboxylic acid] | 100 to 150
Cc1cccc2[nH]cc(C(CC(=O)N3C4CC5CC3CC(O)(C5)C4)c3ccc(F)cc3)c12 (centres unmarked) [Compound 93, 3-(4-fluorophenyl)-1-(5-hydroxy-2-azatricyclo[3.3.1.1^3,7]dec-2-yl)-3-(4-methyl-1H-indol-3-yl)propan-1-one] | > 250
CC(C)Oc1cccc2[nH]cc(C(C)CC(=O)N3C4CC5CC3CC(F)(C5)C4)c12 (centres unmarked) [Compound 182, 1-(5-fluoro-2-azatricyclo[3.3.1.1^3,7]dec-2-yl)-3-[4-(propan-2-yloxy)-1H-indol-3-yl]butan-1-one] | 150 to 200
Cc1ccc2[nH]cc(C(C)CC(=O)N3C4CC5CC3CC(F)(C5)C4)c2c1C (centres unmarked) [Compound 176, 3-(4,5-dimethyl-1H-indol-3-yl)-1-(5-fluoro-2-azatricyclo[3.3.1.1^3,7]dec-2-yl)butan-1-one] | > 250
CC(CC(=O)N1C2CC3CC1CC(C#N)(C3)C2)c1nc2c(Cl)cccc2s1 (single isomer, unassigned) [Compound 125, 2-[3-(4-chloro-1,3-benzothiazol-2-yl)butanoyl]-2-azatricyclo[3.3.1.1^3,7]decane-5-carbonitrile] | > 250
CC(CC(=O)N1C2CC3CC(C2)CC1C3)c1nc2ccccc2s1 (centres unmarked) [Compound 105, 1-(2-azatricyclo[3.3.1.1^3,7]dec-2-yl)-3-(1,3-benzothiazol-2-yl)butan-1-one] | < 100
CC(C)Oc1cccc2[nH]cc(C(C)CC(=O)N3C4CC5CC3CC(O)(C5)C4)c12 (single isomer, unassigned) [Compound 179, 1-(5-hydroxy-2-azatricyclo[3.3.1.1^3,7]dec-2-yl)-3-[4-(propan-2-yloxy)-1H-indol-3-yl]butan-1-one] | > 250
CC(CC(=O)N1C2CC3CC1CC(O)(C3)C2)c1c[nH]c2nccc(Cl)c12 (centres unmarked) [Compound 87, 3-(4-chloro-1H-pyrrolo[2,3-b]pyridin-3-yl)-1-(5-hydroxy-2-azatricyclo[3.3.1.1^3,7]dec-2-yl)butan-1-one] | 150 to 200
Cc1c(F)ccc2[nH]cc(C(C)CC(=O)N3C4CC5CC3CC(O)(C5)C4)c12 (centres unmarked) [Compound 139, 3-(5-fluoro-4-methyl-1H-indol-3-yl)-1-(5-hydroxy-2-azatricyclo[3.3.1.1^3,7]dec-2-yl)butan-1-one] | < 100
CC(CC(=O)N1C2CC3CC1CC(O)(C3)C2)c1c[nH]c2ccc(F)c(C3CC3)c12 (single isomer, unassigned) [Compound 158, 3-(4-cyclopropyl-5-fluoro-1H-indol-3-yl)-1-(5-hydroxy-2-azatricyclo[3.3.1.1^3,7]dec-2-yl)butan-1-one] | > 250
CC(CC(=O)N1C2CC3CC(C2)CC1C3)c1c[nH]c2cccc(N3CCC(C(=O)O)CC3)c12 (centres unmarked) [Compound 183, 1-{3-[4-(2-azatricyclo[3.3.1.1^3,7]dec-2-yl)-4-oxobutan-2-yl]-1H-indol-4-yl}piperidine-4-carboxylic acid] | > 250
Cc1ccc2[nH]cc(C(C)CC(=O)N3C4CC5CC3CC(O)(C5)C4)c2c1C (centres unmarked) [Compound 164, 3-(4,5-dimethyl-1H-indol-3-yl)-1-(5-hydroxy-2-azatricyclo[3.3.1.1^3,7]dec-2-yl)butan-1-one] | 100 to 150

Continued, values first:

IC50 [nM] | SMILES
< 100 | COC12CC3CC(C1)N(C(=O)CC(C)c1c[nH]c4cccc(F)c14)C(C3)C2 (single isomer, unassigned) [Example 31, 3-(4-fluoro-1H-indol-3-yl)-1-(5-methoxy-2-azatricyclo[3.3.1.1^3,7]dec-2-yl)butan-1-one]
> 250 | CC(C)C(CC(=O)N1C2CC3CC1CC(F)(C3)C2)c1c[nH]c2ccccc12 (centres unmarked) [Example 24, 1-(5-fluoro-2-azatricyclo[3.3.1.1^3,7]dec-2-yl)-3-(1H-indol-3-yl)-4-methylpentan-1-one]
> 250 | CC(CC(=O)N1C2CC3CC1CC(C(=O)O)(C3)C2)c1c[nH]c2cccc(C3CC3)c12 (single isomer, unassigned) [Example 53, 2-[3-(4-cyclopropyl-1H-indol-3-yl)butanoyl]-2-azatricyclo[3.3.1.1^3,7]decane-5-carboxylic acid]
200 to 250 | CC(CC(=O)N1C2CC3CC1CC(O)(C3)C2)c1c[nH]c2cccc(F)c12 (centres unmarked) [Example 26, 3-(4-fluoro-1H-indol-3-yl)-1-(5-hydroxy-2-azatricyclo[3.3.1.1^3,7]dec-2-yl)butan-1-one]
> 250 | Cc1cccc2c1c(CCC(=O)N1C3CC4CC(C3)CC1C4)cn2C [Example 3, 1-(2-azatricyclo[3.3.1.1^3,7]dec-2-yl)-3-(1,4-dimethyl-1H-indol-3-yl)propan-1-one]
> 250 | O=C(CCc1nc2ccccc2s1)N1C2CC3CC1CC(OC(F)F)(C3)C2 [Example 13, 3-(1,3-benzothiazol-2-yl)-1-[5-(difluoromethoxy)-2-azatricyclo[3.3.1.1^3,7]dec-2-yl]propan-1-one]
< 100 | COc1ccc2[nH]cc(C(C)CC(=O)N3C4CC5CC(C4)CC3C5)c2c1 (centres unmarked) [Compound 226, 1-(2-azaadamantan-2-yl)-3-(5-methoxy-1H-indol-3-yl)butan-1-one]
> 250 | CC(CC(=O)N1C2CC3CC1CC(C(=O)O)(C3)C2)c1c[nH]c2cccc(C3CC3)c12 (centres unmarked) [Example 51, 2-[3-(4-cyclopropyl-1H-indol-3-yl)butanoyl]-2-azatricyclo[3.3.1.1^3,7]decane-5-carboxylic acid]
< 100 | COc1ccc2[nH]cc(C(C)CC(=O)N3C4CC5CC3CC(C)(C5)C4)c2c1 (centres unmarked) [Compound 227, 3-(5-methoxy-1H-indol-3-yl)-1-(5-methyl-2-azaadamantan-2-yl)butan-1-one]
< 100 | CC(CC(=O)N1C2CC3CC1CC(O)(C3)C2)c1c[nH]c2cccc(Cl)c12 (centres unmarked) [Example 35, 3-(4-chloro-1H-indol-3-yl)-1-(5-hydroxy-2-azatricyclo[3.3.1.1^3,7]dec-2-yl)butan-1-one]
> 250 | O=C(CCc1nc2ccccc2s1)N1C2CC3CC(C2)CC1C3 [Example 11, 1-(2-azatricyclo[3.3.1.1^3,7]dec-2-yl)-3-(1,3-benzothiazol-2-yl)propan-1-one]
> 250 | Cc1ccc2[nH]cc(C(C)CC(=O)N3C4CC5CC3CC(C#N)(C5)C4)c2c1C (centres unmarked) [Compound 221, 2-(3-(4,5-dimethyl-1H-indol-3-yl)butanoyl)-2-azaadamantane-5-carbonitrile]
> 250 | O=C(CCc1c[nH]c2ncccc12)N1C2CC3CC1CC(O)(C3)C2 [Example 15, 1-(5-hydroxy-2-azatricyclo[3.3.1.1^3,7]dec-2-yl)-3-(1H-pyrrolo[2,3-b]pyridin-3-yl)propan-1-one]
150 to 200 | Cc1cccc2[nH]cc(C(C)CC(=O)N3C4CC5CC3CC(C#N)(C5)C4)c12 (centres unmarked) [Example 70, 2-[3-(4-methyl-1H-indol-3-yl)butanoyl]-2-azatricyclo[3.3.1.1^3,7]decane-5-carbonitrile]
100 to 150 | CC(CC(=O)N1C2CC3CC1CC(OC(F)F)(C3)C2)c1c[nH]c2cccc(Cl)c12 (centres unmarked) [Example 39, 3-(4-chloro-1H-indol-3-yl)-1-[5-(difluoromethoxy)-2-azatricyclo[3.3.1.1^7]dec-2-yl]butan-1-one]
> 250 | CC(CC(=O)N1C2CC3CC1CC(O)(C3)C2)c1c[nH]c2ccccc12 (single isomer, unassigned) [Example 22, 1-(5-hydroxy-2-azatricyclo[3.3.1.1^3,7]dec-2-yl)-3-(1H-indol-3-yl)butan-1-one]
